According to patent US7150974B1, “Parathyroid hormone receptor binding method” (The General Hospital Corporation, priority 1991, dated 2006):

Target: T1, carboxy-terminally-truncated rat receptor, R480 (Rattus norvegicus, UniProt P25961)
T1 construct: R480, by standard PCR technology using R15B as a template and an upstream primer containing a stop codon inserted at position 481; expressed in transfected cells
T1 sequence (P25961 27-480): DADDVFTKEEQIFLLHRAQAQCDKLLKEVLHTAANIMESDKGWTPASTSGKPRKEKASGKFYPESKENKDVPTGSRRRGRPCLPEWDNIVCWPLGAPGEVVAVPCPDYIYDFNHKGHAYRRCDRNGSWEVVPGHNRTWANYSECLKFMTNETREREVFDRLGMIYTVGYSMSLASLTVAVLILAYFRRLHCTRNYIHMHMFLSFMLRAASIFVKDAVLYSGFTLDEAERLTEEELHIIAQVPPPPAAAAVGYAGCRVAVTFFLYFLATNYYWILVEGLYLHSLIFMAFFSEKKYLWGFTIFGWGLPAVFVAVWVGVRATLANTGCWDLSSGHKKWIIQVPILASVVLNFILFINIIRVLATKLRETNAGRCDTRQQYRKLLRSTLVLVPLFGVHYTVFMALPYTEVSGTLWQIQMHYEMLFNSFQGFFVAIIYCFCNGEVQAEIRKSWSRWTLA
Assay: Binding to carboxy-terminally-truncated rat receptor R480 in COS-7 and CHO cells
Conditions: COS-7 (transient) and CHO (stable) cells
Procedure: [Nle^8,Nle^18,Tyr^34]bPTH-(1-34)amide (NlePTH), and [Tyr^36]PTHrP(1-36)amide(PTHrP) were iodinated with Na^125I (carrier free, New England Nuclear, Boston, Mass.) as previously reported (Segre et al., J. Biol. Chem. 254: 6980, 1979), and purified by reverse-phase HPLC. In brief, the labeled peptide was dissolved in 0.1% trifluoracetic acid (TFA), applied to a C18 Sep-pak cartridge (Waters Associates, Inc., Milford, Mass.) and eluted with a solution of 60% acetonitrile in 0.1% TFA. After lyophilization, the radioligand then was applied to C18-μBondapak column (3.9 mm×30 cm. Waters Associates) and eluted over 30 min with a linear gradient of 30-50% acetonitrile-0.1% TFA at a flow rate of 2 ml/min. The radioligand eluted in two peaks; the first peak, which eluted at approximately 38% acetonitrile, was used in these studies because it gave higher total and specific bindings. […]
Incubations were terminated by aspirating the buffer, and repeatedly (×3) washing the culture dishes, containing the adherent cells with chilled 0.9% NaCl solution, over a 15 sec period. Cell-bound radioactivity was recovered by the sequential addition (×3) of 1 N NaOH (200 μl) to each well. […] A second and third extraction with 1 N NaOH (200 μl) were combined with the first, and the total radioactivity was counted in a γ-spectrometer (Packard Instruments, Downers Grove, Ill.). […]

[Nle^8,18, Tyr^34]bPTH(1-34)amide
affinity for truncated receptor R480 compared with wild type receptor RB: equivalent affinities
